# Experimental data published in publication PMC8540742, “New N-Substituted-1,2,4-triazole Derivatives of Pyrrolo[3,4-d]pyridazinone with Significant Anti-Inflammatory Activity—Design, Synthesis and Complementary In Vitro, Computational and Spectroscopic Studies” (International Journal of Molecular Sciences, 2021).
# Target: T1, bovine serum albumin (BSA) (Bos taurus, UniProt P02769)
# T1 construct: gene ALB; commercial native serum albumin (Sigma Aldrich, named for the FT-IR work), mature protein 583 residues, no tags
# T1 sequence (P02769 25-607): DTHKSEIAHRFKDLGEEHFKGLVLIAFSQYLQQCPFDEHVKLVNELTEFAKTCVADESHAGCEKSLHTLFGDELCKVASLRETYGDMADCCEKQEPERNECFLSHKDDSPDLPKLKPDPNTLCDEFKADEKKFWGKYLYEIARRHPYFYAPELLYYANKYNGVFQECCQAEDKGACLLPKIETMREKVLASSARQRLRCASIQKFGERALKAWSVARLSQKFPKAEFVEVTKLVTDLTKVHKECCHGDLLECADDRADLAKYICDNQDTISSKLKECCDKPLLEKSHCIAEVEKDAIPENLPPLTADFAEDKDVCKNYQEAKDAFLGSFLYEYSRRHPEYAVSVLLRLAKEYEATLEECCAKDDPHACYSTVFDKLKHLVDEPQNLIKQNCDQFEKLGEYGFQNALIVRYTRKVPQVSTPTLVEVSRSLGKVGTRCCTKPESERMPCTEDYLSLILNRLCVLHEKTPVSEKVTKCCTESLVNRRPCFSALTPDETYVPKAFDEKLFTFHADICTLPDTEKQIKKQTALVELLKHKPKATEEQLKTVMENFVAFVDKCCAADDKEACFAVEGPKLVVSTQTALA
# Assay: intrinsic fluorescence quenching (ex […] nm)
# Assay type: binding
# Settings: […] K, pH […] BSA; static quenching; n about […]; subdomain IIIA by site markers; double-log
row,Binding / Kb × 10^4 [dm^3mol^-1],SMILES
1,9.33 × 10^4 dm^3 mol^-1,"CCCCn1c(C)c2c(OCc3nnc(SCC(=O)N4CCN(c5ccccc5)CC4)n3-c3ccc(OC)cc3)nn(C)c(=O)c2c1C [7c, 6-butyl-3,5,7-trimethyl-1-[[4-(4-methoxy)phenyl-3-[2-oxo-2-(4-phenylpiperazin-1-yl)ethyl]sulfanyl-2H-1,2,4-triazol-5-yl]methoxy]pyrrolo[3,4-d]pyridazin-4-one]"
2,4.68 × 10^4 dm^3 mol^-1,"CCCCn1c(C)c2c(OCc3nnc(SCC(=O)N4CCN(c5ccccc5)CC4)n3C)nn(C)c(=O)c2c1C [7a, 6-butyl-3,5,7-trimethyl-1-[[4-methyl-3-[2-oxo-2-(4-phenylpiperazin-1-yl)ethyl]sulfanyl-2H-1,2,4-triazol-5-yl]methoxy]pyrrolo[3,4-d]pyridazin-4-one]"
3,4.90 × 10^4 dm^3 mol^-1,"CCCCn1c(C)c2c(OCc3nn(CN4CCN(c5ccc(C)cc5)CC4)c(=S)n3C)nn(C)c(=O)c2c1C [6a, 6-butyl-3,5,7-trimethyl-1-[[4-methyl-2-[[4-[(4-methyl)phenyl]piperazin-1-yl]methyl]-3-thioxo-2H-1,2,4-triazol-5-yl]methoxy]pyrrolo[3,4-d]pyridazin-4-one]"
4,8.13 × 10^4 dm^3 mol^-1,"CCCCn1c(C)c2c(OCc3nn(CN4CCN(c5ccc(C)cc5)CC4)c(=S)n3-c3ccccc3)nn(C)c(=O)c2c1C [6b, 6-butyl-3,5,7-trimethyl-1-[[4-phenyl-2-[[4-[(4-methyl)phenyl]piperazin-1-yl]methyl]-3-thioxo-2H-1,2,4-triazol-5-yl]methoxy]pyrrolo[3,4-d]pyridazin-4-one]"
5,9.55 × 10^4 dm^3 mol^-1,"CCCCn1c(C)c2c(OCc3nn(CN4CCN(c5ccc(C)cc5)CC4)c(=S)n3-c3ccc(OC)cc3)nn(C)c(=O)c2c1C [6c, 6-butyl-1-[[4-(4-methoxyphenyl)-2-[[4-[(4-methyl)phenyl]piperazin-1-yl]methyl]-3-thioxo-2H-1,2,4-triazol-5-yl]methoxy]-3,5,7-trimethyl-pyrrolo[3,4-d]pyridazin-4-one]"
6,5.75 × 10^4 dm^3 mol^-1,"CCCCn1c(C)c2c(OCc3nn(CN4CCN(c5cccc(C(F)(F)F)c5)CC4)c(=S)n3-c3ccccc3)nn(C)c(=O)c2c1C [5b, 6-butyl-3,5,7-trimethyl-1-[[4-phenyl-2-[[4-[3-(trifluoromethyl)phenyl]piperazin-1-yl]methyl]-3-thioxo-2H-1,2,4-triazol-5-yl]methoxy]pyrrolo[3,4-d]pyridazin-4-one]"
7,8.91 × 10^4 dm^3 mol^-1,"CCCCn1c(C)c2c(OCc3nn(CN4CCN(c5ccccc5)CC4)c(=S)n3C)nn(C)c(=O)c2c1C [4a, 6-butyl-3,5,7-trimethyl-1-[[4-methyl-2-[(4-phenylpiperazin-1-yl)methyl]-3-thioxo-2H-1,2,4-triazol-5-yl]methoxy]pyrrolo[3,4-d]pyridazin-4-one]"
8,6.61 × 10^4 dm^3 mol^-1,"CCCCn1c(C)c2c(OCc3nn(CN4CCN(c5ccccc5)CC4)c(=S)n3-c3ccccc3)nn(C)c(=O)c2c1C [4b, 6-butyl-3,5,7-trimethyl-1-[[4-phenyl-2-[(4-phenylpiperazin-1-yl)methyl]-3-thioxo-2H-1,2,4-triazol-5-yl]methoxy]pyrrolo[3,4-d]pyridazin-4-one]"
9,8.13 × 10^4 dm^3 mol^-1,"CCCCn1c(C)c2c(OCc3nn(CN4CCN(c5cccc(C(F)(F)F)c5)CC4)c(=S)n3C)nn(C)c(=O)c2c1C [5a, 6-butyl-3,5,7-trimethyl-1-[[4-methyl-2-[[4-[3-(trifluoromethyl)phenyl]piperazin-1-yl]methyl]-3-thioxo-2H-1,2,4-triazol-5-yl]methoxy]pyrrolo[3,4-d]pyridazin-4-one]"
10,9.33 × 10^4 dm^3 mol^-1,"CCCCn1c(C)c2c(OCc3nn(CN4CCN(c5cccc(C(F)(F)F)c5)CC4)c(=S)n3-c3ccc(OC)cc3)nn(C)c(=O)c2c1C [5c, 6-butyl-1-[[4-(4-methoxyphenyl)-2-[[4-[3-(trifluoromethyl)phenyl]piperazin-1-yl]methyl]-3-thioxo-2H-1,2,4-triazol-5-yl]methoxy]-3,5,7-trimethyl-pyrrolo[3,4-d]pyridazin-4-one]"
11,9.33 × 10^4 dm^3 mol^-1,"CCCCn1c(C)c2c(OCc3nnc(SCC(=O)N4CCN(c5ccccc5)CC4)n3-c3ccccc3)nn(C)c(=O)c2c1C [7b, 6-butyl-3,5,7-trimethyl-1-[[4-phenyl-3-[2-oxo-2-(4-phenylpiperazin-1-yl)ethyl]sulfanyl-2H-1,2,4-triazol-5-yl]methoxy]pyrrolo[3,4-d]pyridazin-4-one]"
